The values below come from patent publication US8163909B2, “Substituted hydroxyethyl amine compounds as beta-secretase modulators and methods of use” (Amgen Inc., priority 2007, dated 2012).

Read-outs that look alike come from different tables or passages of the source.

Test [1] deals with Aβ40 in conditioned medium of cells stably expressing Amyloid Precursor Protein (APP). As to the kind of experiment: In vitro BACE cell-based assay (Aβ40 in conditioned medium, sandwich ELISA).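 Also: compounds added as a dilution series, secreted peptide quantified by europium time-resolved fluorescence readout, potency fitted from percent of control versus compound concentration.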
Test [2] addresses Beta Secretase enzyme (BACE) (Homo sapiens, UniProt P56817). As to the kind of experiment: In vitro enzymatic BACE FRET (fluorescence resonance energy transfer) assay.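 Also: fluorescence read after 1 h with 50 nM quenched peptide substrate spanning the BACE cleavage site, in pH 4.2 acetate buffer containing 10% DMSO and nonionic detergent.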 The test is classed as biochemical.
Setting [3] is: Homo sapiens, HEK293, HEK cells, cell-based assay, read-out: HEK cell assay (IC50).
Setting [4] is: BACE enzyme FRET assay, read-out: BACE1 FRET assay (IC50).
Setting [5] is: BACE enzyme assay, read-out: BACE1 FRET assay (IC50).
[6] abbreviates: HEK cells, cell-based assay, read-out: HEK cell assay (IC50).
[7] abbreviates: Homo sapiens, HEK293, Table 1, HEK cells, read-out: HEK cell assay.
Setting [8] is: Table 1, read-out: BACE1 FRET assay.

Chain of Beta Secretase enzyme (BACE) (P56817 46-501): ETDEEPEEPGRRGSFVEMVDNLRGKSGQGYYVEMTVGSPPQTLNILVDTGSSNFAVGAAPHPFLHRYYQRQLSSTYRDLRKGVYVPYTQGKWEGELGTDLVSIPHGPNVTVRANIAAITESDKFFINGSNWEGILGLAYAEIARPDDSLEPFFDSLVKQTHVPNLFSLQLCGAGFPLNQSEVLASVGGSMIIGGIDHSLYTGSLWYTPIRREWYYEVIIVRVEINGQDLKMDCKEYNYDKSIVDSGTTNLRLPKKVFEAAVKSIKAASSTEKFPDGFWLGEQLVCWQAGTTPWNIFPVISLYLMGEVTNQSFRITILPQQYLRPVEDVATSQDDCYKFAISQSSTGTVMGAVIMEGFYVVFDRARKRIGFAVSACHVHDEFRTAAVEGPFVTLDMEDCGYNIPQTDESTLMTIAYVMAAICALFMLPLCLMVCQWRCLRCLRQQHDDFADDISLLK

Turning to `COCC(=O)N[C@@H](Cc1ccc2c(c1)OC(F)(F)O2)[C@H](O)CN[C@H]1CC2(CCC2)Oc2ncc(CC(C)(C)C)cc21` [compound 291], the IC50 was determined as 0.382 µM in test [1] (setting [3]) and 0.0414 µM in test [2] (setting [4]).

With `CC(C)(C)Cc1cnc2c(c1)[C@@H](NC[C@@H](O)[C@H](Cc1cccc(F)c1)NC(=O)CCl)CC1(CCC1)O2` [compound 107], the IC50 in test [1] (setting [3]) was 0.0224 µM; in test [2] (setting [5]), 0.00507 µM.

As for `CC(C)(C)Cc1cnc2c(c1)C(NCC(O)C(Cc1ccc(F)cc1)NC(=O)CF)CC1(CC(O)C1)O2` [compound 230, N-((1S,2R)-3-(((1s,3S,4′S)-6′-(2,2-dimethylpropyl)-3-hydroxy-3′,4′-dihydrospiro[cyclobutane-1,2′-pyrano[2,3-b]pyridin]-4′-yl)amino)-1-((4-fluorophenyl)methyl)-2-hydroxypropyl)-2-fluoroacetamide], the IC50 in test [1] (setting [3]) stood at 0.01 µM; in test [2] (setting [4]), 0.00424 µM.

Regarding `COC(=O)C1CC2(C1)CC(NCC(O)C(Cc1ccc(F)cc1)NC(C)=O)c1cc(CC(C)(C)C)cnc1O2` [compound 258, methyl (1r,3S,4′S)-4′-(((2R,3S)-3-(acetylamino)-4-(4-fluorophenyl)-2-hydroxybutyl)amino)-6′-(2,2-dimethylpropyl)-3′,4′-dihydrospiro[cyclobutane-1,2′-pyrano[2,3-b]pyridine]-3-carboxylate], the IC50 stood at 0.0929 µM in test [1] (setting [6]) and 0.0389 µM in test [2] (setting [4]).

For the compound `CO[C@H](C)C(=O)N[C@@H](Cc1cc(F)c2c(c1)OCO2)[C@H](O)CN[C@H]1CC2(CCC2)Oc2ncc(CC(C)(C)C)cc21` [compound 303], the IC50 in test [1] (setting [3]) amounted to 0.0214 µM; in test [2] (setting [4]), 0.00901 µM.

As for `CC(C)(C)Cc1cnc2c(c1)[C@@H](NC[C@@H](O)[C@H](Cc1ccc3c(c1)OCO3)NC(=O)CF)CC1(CCC1)O2` [compound 283], the IC50 in test [1] (setting [3]) worked out at 0.019 µM; in test [2] (setting [4]) it was 0.00751 µM.

`CO[C@H](C)C(=O)N[C@@H](Cc1ccc(F)cc1)[C@H](O)CN[C@H]1CC2(CCC2)Oc2c(-c3ccncc3)cc(CC(C)(C)F)cc21` [compound 577]: the IC50 in test [1] (Homo sapiens, HEK293, HEK cells, read-out: HEK cell assay (IC50)) was 0.057 µM; in test [2] (read-out: BACE1 FRET assay (IC50)), 0.115 µM.

On to `C[C@@H](O)C(=O)N[C@@H](Cc1ccc(F)cc1)[C@H](O)CN[C@H]1CC2(CCC2)Oc2ncc(CC(C)(C)C)cc21` [compound 157], for which the IC50 worked out at 0.0217 µM in test [1] (setting [3]) and 0.0151 µM in test [2] (setting [5]).

Take `CC(=O)N[C@@H](Cc1cccc(F)c1C)[C@H](O)CN[C@H]1CC2(CCC2)Oc2ncc(CC(C)(C)C)cc21` [compound 109]: the IC50 turned out to be 0.319 µM in test [1] (setting [3]) and 0.0723 µM in test [2] (setting [5]).

For the compound `COCC(=O)N[C@@H](Cc1cc(F)c2c(c1)OCO2)[C@H](O)CN[C@H]1CC2(CCC2)Oc2ncc(CC(C)(C)C)cc21` [compound 302], the IC50 in test [1] (setting [3]) is 0.0115 µM; in test [2] (setting [4]), 0.00573 µM.

With `CC(=O)NC(Cc1ccc(F)cc1)C(O)CNC1CC2(CC(C#N)C2)Oc2ncc(CC(C)(C)C)cc21` [compound 260, N-((1S,2R)-3-(((1s,3R,4′S)-3-cyano-6′-(2,2-dimethylpropyl)-3′,4′-dihydrospiro[cyclobutane-1,2′-pyrano[2,3-b]pyridin]-4′-yl)amino)-1-((4-fluorophenyl)methyl)-2-hydroxypropyl)acetamide], the IC50 in test [1] (setting [3]) was determined as 0.0702 µM; in test [2] (setting [4]), 0.0987 µM.

As for `COCC(=O)N[C@@H](Cc1ccc2c(c1)OCO2)[C@@H](CN[C@H]1CC2(CCC2)Oc2ncc([C@H](F)C(C)(C)C)cc21)OC` [compound 196], the figures for the IC50 in test [1] (setting [3]) and in test [2] (setting [4]) were 3.99 µM and 2.64 µM, respectively.

Regarding `CO[C@H](C)C(=O)N[C@@H](Cc1ccc(F)cc1)[C@H](O)CN[C@H]1CC2(CCC2)Oc2c1cc(CC(C)(C)C)nc2NCC(F)(F)F` [compound 141, (2R)-N-((1S,2R)-3-(((4′S)-6′-(2,2-dimethylpropyl)-8′-((2,2,2-trifluoroethyl)amino)-3′,4′-dihydrospiro[cyclobutane-1,2′-pyrano[2,3-c]pyridin]-4′-yl)amino)-1-((4-fluorophenyl)methyl)-2-hydroxypropyl)-2-(methyloxy)propanamide], the IC50 in test [1] (setting [3]) amounted to 2.84 µM; in test [2] (setting [5]), 0.319 µM.

Turning to `CNc1nc(CC(C)(C)C)cc2c1OC1(CCC1)C[C@@H]2NC[C@@H](O)[C@H](Cc1ccc2c(c1)OCO2)NC(=O)[C@@H](C)OC` [compound 136], the values for the IC50 in test [1] (setting [3]) and in test [2] (setting [5]) were 0.0163 µM and 0.0411 µM, respectively.

`CC(=O)N[C@@H](Cc1cc(F)cc(F)c1)[C@H](O)CN[C@H]1CC2(CCC2)Oc2ncc(CC(C)(C)C(F)F)cc21` [compound 226]: the IC50 in test [1] (setting [3]) amounted to 0.00527 µM; in test [2] (setting [4]), 0.00415 µM.

Take `CC(C)(C)Cc1cnc2c(c1)[C@@H](NC[C@@H](O)[C@H](Cc1cccc(F)c1)NC(=O)C(F)(F)Cl)CC1(CCC1)O2` [compound 108]: the IC50 was found to be 0.0906 µM in test [1] (setting [3]) and 0.00506 µM in test [2] (setting [5]).

As for `CO[C@H](C)C(=O)N[C@@H](Cc1ccc2c(c1)OCO2)[C@H](O)CN[C@H]1CC2(CCC2)Oc2nc(F)c(CC(C)C)cc21` [compound 336], the values for the IC50 in test [1] (setting [7]) and in test [2] (setting [8]) were 0.404 µM and 0.135 µM, respectively.

Turning to `CC(=O)N[C@@H](Cc1ccc2c(c1)OCO2)[C@H](O)CN[C@H]1CC2(CCC2)Oc2ncc(CC(C)(C)CF)cc21` [compound 178], the IC50 in test [1] (setting [3]) was 0.0175 µM; in test [2] (setting [5]), 0.00839 µM.

With `CC(C)(C)Cc1cnc2c(c1)[C@@H](NC[C@@H](O)[C@H](Cc1ccc3c(c1)OCO3)NC(=O)[C@@H]1CCCO1)CC1(CCC1)O2` [compound 453], the IC50 in test [1] (Homo sapiens, HEK293, Table 2, HEK cells, read-out: HEK cell assay) was found to be 0.037 µM; in test [2] (Table 2, read-out: BACE1 FRET assay) it was 0.022 µM.

Regarding `CC(=O)N[C@@H](Cc1cccc(F)c1)[C@H](O)CN[C@H]1CC2(CCC2)Oc2c(F)cc(CC(C)(C)C)cc21` [compound 220], the IC50 in test [1] (setting [3]) is 0.0116 µM; in test [2] (setting [4]), 0.00405 µM.

On to `CO[C@H](C)C(=O)N[C@@H](Cc1cccc(C#N)c1)[C@H](O)CN[C@H]1CC2(CCC2)Oc2ncc(CC(C)(C)C)cc21` [compound 56], for which the IC50 was found to be 0.00305 µM in test [1] (setting [3]) and 0.00263 µM in test [2] (setting [5]).

In the case of `COCC(=O)NC(Cc1ccc2c(c1)OCO2)C(O)CNC1CC2(CC(F)C2)Oc2ncc(CC(C)(C)C)cc21` [compound 240, N-((1S,2R)-1-(1,3-benzodioxol-5-ylmethyl)-3-(((1s,3S,4′S)-6′-(2,2-dimethylpropyl)-3-fluoro-3′,4′-dihydrospiro[cyclobutane-1,2′-pyrano[2,3-b]pyridin]-4′-yl)amino)-2-hydroxypropyl)-2-(methyloxy)acetamide], the IC50 was 0.108 µM in test [1] (setting [3]) and 0.087 µM in test [2] (setting [4]).

Take `C#Cc1cc(C[C@H](NC(=O)COC)[C@H](O)CN[C@H]2CC3(CCC3)Oc3ncc(CC(C)(C)C)cc32)cc(-c2nccs2)c1` [compound 889]: the IC50 in test [1] (Homo sapiens, HEK293, cell-based assay, HEK cells, IC50's in uM, read-out: HEK cell assay) is 0.989 µM; in test [2] (BACE enzyme assay, IC50's in uM, read-out: BACE1 FRET assay), 0.653 µM.

On to `CC(=O)N[C@@H](Cc1cc(F)cc(F)c1)[C@H](O)CN[C@H]1CC(C)(C)N2CCOc3cc(CC(C)(C)C)cc1c32` [compound 725], for which the IC50 in test [1] (Homo sapiens, HEK293, HEK cell-based assay IC50, read-out: HEK cell assay) stood at 0.178 µM; in test [2] (BACE enzyme assay IC50, read-out: BACE1 FRET assay), 0.059 µM.

As to `CC(C)(C)Cc1cnc2c(c1)[C@@H](NC[C@@H](O)[C@H](Cc1cccc(C#N)c1)NC(=O)[C@H](O)C(F)(F)F)CC1(CCC1)O2` [compound 61], the IC50 turned out to be 0.00965 µM in test [1] (setting [3]) and 0.00323 µM in test [2] (setting [5]).

As to `COCC(=O)N[C@@H](Cc1ccc2c(c1)OCO2)[C@H](O)CN[C@H]1CC2(CCC2)Oc2c1cc(CC(C)(C)C)nc2NCC(F)(F)F` [compound 142], the IC50 in test [1] (setting [3]) came to 1.95 µM; in test [2] (setting [5]) it was 0.35 µM.

For `COC(C)C(=O)NC(Cc1ccc2c(c1)OCO2)C(O)CNC1CC2(CC(O)C2)Oc2ncc(CC(C)C)cc21` [compound 248, (2R)—N-((1S,2R)-1-(1,3-benzodioxol-5-ylmethyl)-2-hydroxy-3-(((1s,3S,4′S)-3-hydroxy-6′-(2-methylpropyl)-3′,4′-dihydrospiro[cyclobutane-1,2′-pyrano[2,3-b]pyridin]-4′-yl)amino)propyl)-2-(methyloxy)propanamide], the IC50 in test [1] (setting [3]) stood at 0.035 µM; in test [2] (setting [4]), 0.0172 µM.

With `COCC(=O)N[C@@H](Cc1cccc(F)c1)[C@H](O)CN[C@H]1CC2(CCC2)Oc2ncc(CC(C)(C)C(F)F)cc21` [compound 218], the IC50 in test [1] (setting [3]) is 0.00525 µM; in test [2] (setting [4]) it was 0.00438 µM.

With “1-cyclobutyl-N-((1S,2R)-3-(((4′S)-6′-(2,2-dimethylpropyl)-3′,4′-dihydrospiro[cyclobutane-1,2′-pyrano[2,3-b]pyridin]-4′-yl)amino)-1-((4-fluorophenyl)methyl)-2-hydroxypropyl)-5-oxo-3-pyrrolidinecarboxamide [compound 67]”, the IC50 came out at 0.0625 µM in test [1] (setting [6]) and 0.471 µM in test [2] (setting [5]).

For `CO[C@H](C)C(=O)N[C@@H](Cc1cccc(F)c1)[C@H](O)CN[C@H]1CC2(CCC2)Oc2ncc(CC(C)(C)C)cc21` [compound 360], the IC50 in test [1] (setting [7]) amounted to 0.00482 µM; in test [2] (setting [8]), 0.00311 µM.

On to `COCCNc1nc(CC(C)(C)C)cc2c1OC1(CCC1)C[C@@H]2NC[C@@H](O)[C@H](Cc1ccc(F)cc1)NC(C)=O` [compound 149, N-((1S,2R)-3-(((4′S)-6′-(2,2-dimethylpropyl)-8′-((2-(methyloxy)ethyl)amino)-3′,4-dihydrospiro[cyclobutane-1,2′-pyrano[2,3-c]pyridin]-4′-yl)amino)-1-((4-fluorophenyl)methyl)-2-hydroxypropyl)acetamide], for which the IC50 is 0.0272 µM in test [1] (setting [3]) and 0.0479 µM in test [2] (setting [5]).
